Results: ChEMBL document CHEMBL3044972, “Synthesis, anti-inflammatory, and cytotoxicity evaluation of 9,10-dihydroanthracene-9,10-,-succinimide and bis-succinimide derivatives” (2013)

How the values were obtained:
Format in all cases: functional
HepG2 = assay: Cytotoxicity against Homo sapiens (human) HepG2 cells assessed as growth inhibition at 10 uM after 48 hr by SRB assay; conditions: HepG2, 48 h, read-out: GI
HCT-15 = assay: Cytotoxicity against Homo sapiens (human) HCT15 cells assessed as growth inhibition at 10 uM after 48 hr by SRB assay; conditions: HCT-15, 48 h, read-out: GI
PA-1 = assay: Cytotoxicity against Homo sapiens (human) PA1 cells assessed as growth inhibition at 10 uM after 48 hr by SRB assay; conditions: PA-1, 48 h, read-out: GI
NCI-H522 = assay: Cytotoxicity against Homo sapiens (human) NCI-H522 cells assessed as growth inhibition at 10 uM after 48 hr by SRB assay; conditions: NCI-H522, 48 h, read-out: GI
T47D = assay: Cytotoxicity against Homo sapiens (human) T47D cells assessed as growth inhibition at 10 uM after 48 hr by SRB assay; conditions: read-out: GI
Rattus norvegicus = assay: Anti-inflammatory activity against albino Charles Foster Rattus norvegicus (rat) assessed as inhibition of carrageenan-induced paw edema at 50 mg/kg, po administered 30 min prior to carrageenan injection measured after 1-3 hr by plethysmometer; design: scale not given: the % may be the effect or the level left

Row | SMILES | inhibition of growth at 10 µM (HepG2) [%] | inhibition of growth at 10 µM (HCT-15) [%] | inhibition of growth at 10 µM (PA-1) [%] | inhibition of growth at 10 µM (NCI-H522) [%] | inhibition of growth at 10 µM (T47D) [%] | Activity (Rattus norvegicus) [%]
1 | O=C1C2C3c4ccccc4C(c4ccccc43)C2C(=O)N1CN1CCOCC1 (configuration not stated) | 34 | 22 | 24 | 24 | 20 | 39
2 | O=C1C2C3c4ccccc4C(c4ccccc43)C2C(=O)N1Cc1ccco1 (configuration not stated) | 38 | 15 | 27 | 25 | 40 | 15
3 | O=C1C2C3c4ccccc4C(c4ccccc43)C2C(=O)N1Cc1ccccn1 (configuration not stated) | 35 | 7 | 47 | 20 | 26 | 14
4 | O=C1C2C3c4ccccc4C(c4ccccc43)C2C(=O)N1CC1CCCO1 (configuration not stated) | 55 | 22 | 31 | 30 | 23 | 34
5 | O=C1C2C3c4ccccc4C(c4ccccc43)C2C(=O)N1CCN1CCNCC1 (configuration not stated) | – | – | – | – | – | 31
6 | O=C1C2C3c4ccccc4C(c4ccccc43)C2C(=O)N1CC1CCNCC1 (configuration not stated) | 32 | 11 | 26 | 25 | 17 | 35
7 | O=C1C2C3c4ccccc4C(c4ccccc43)C2C(=O)N1Cc1ccccc1 (configuration not stated) | 52 | 12 | 43 | 62 | 22 | 37
8 | O=C1C2C3c4ccccc4C(c4ccccc43)C2C(=O)N1C1CC1 (configuration not stated) | 53 | 19 | 37 | 24 | 21 | 23
9 | CC1(C)CC(N2C(=O)C3C4c5ccccc5C(c5ccccc54)C3C2=O)CC(C)(C)N1 (configuration not stated) | 40 | 20 | 31 | 15 | 10 | 32
10 | O=C1C2C3c4ccccc4C(c4ccccc43)C2C(=O)N1Cc1ccncc1 (configuration not stated) | 61 | 12 | 21 | 27 | 24 | 37
11 | O=C1C2C3c4ccccc4C(c4ccccc43)C2C(=O)N1CCN1CCCC1 (configuration not stated) | 47 | 14 | 36 | 13 | 7 | 28
12 | O=C1C2C3c4ccccc4C(c4ccccc43)C2C(=O)N1CCN1CCCCC1 (configuration not stated) | 38 | 6 | 25 | 23 | 20 | 27
13 | O=C1CCCN1CCN1C(=O)C2C3c4ccccc4C(c4ccccc43)C2C1=O (configuration not stated) | 41 | 16 | 33 | 15 | 26 | 17
14 | O=C1C2C3c4ccccc4C(c4ccccc43)C2C(=O)N1CCCn1ccnc1 (configuration not stated) | 48 | 30 | 40 | 32 | 28 | 27
15 | O=C1C2C3c4ccccc4C(c4ccccc43)C2C(=O)N1Nc1ccccc1 (configuration not stated) | 52 | 11 | 46 | 52 | 13 | 11
16 | O=C1C2C3c4ccccc4C(c4ccccc43)C2C(=O)N1Nc1ccccn1 (configuration not stated) | 37 | 4 | 13 | 27 | 1 | 38
17 | O=C1C2C3c4ccccc4C(c4ccccc43)C2C(=O)N1CCN1C(=O)C2C3c4ccccc4C(c4ccccc43)C2C1=O (configuration not stated) | 29 | 10 | 9 | 11 | 5 | 20
18 | O=C1C2C3c4ccccc4C(c4ccccc43)C2C(=O)N1CCCN1C(=O)C2C3c4ccccc4C(c4ccccc43)C2C1=O (configuration not stated) | 45 | 27 | 6 | 17 | 24 | 33
19 | O=C1C2C3c4ccccc4C(c4ccccc43)C2C(=O)N1CCCCN1C(=O)C2C3c4ccccc4C(c4ccccc43)C2C1=O (configuration not stated) | 25 | 26 | 37 | 23 | 19 | 25
20 | CC(CN1C(=O)C2C3c4ccccc4C(c4ccccc43)C2C1=O)N1C(=O)C2C3c4ccccc4C(c4ccccc43)C2C1=O (configuration not stated) | 41 | 9 | 14 | 20 | 2 | 22
21 | O=C1C2C3c4ccccc4C(c4ccccc43)C2C(=O)N1CCCN1CCN(CCCN2C(=O)C3C4c5ccccc5C(c5ccccc54)C3C2=O)CC1 (configuration not stated) | 33 | 10 | 16 | 17 | 33 | 15
22 | C[C@@H]1C[C@@H]([C@H](O)CC2CC(=O)NC(=O)C2)C(=O)[C@@H](C)C1 [CYCLOHEXIMIDE] | 15 | 12 | 32 | 13 | 9 | –
23 | O=P1(N(CCCl)CCCl)NCCCO1 (configuration not stated) [CYCLOPHOSPHAMIDE ANHYDROUS] | 14 | 5 | 15 | 9 | 12 | –
24 | O=c1[nH]cc(F)c(=O)[nH]1 [FLUOROURACIL] | 28 | 15 | 18 | 18 | 10 | –
25 | CC(C)Cc1ccc(C(C)C(=O)O)cc1 (configuration not stated) [IBUPROFEN] | – | – | – | – | – | 39
